Values quoted from earlier work, collected in PubChem BioAssay AID1259409 (Chemical Carcinogenesis Research Information System (CCRIS), 2018).

Tested on: rodent chemically induced tumor inhibition, incidence and multiplicity
Assay: CCRIS tumor inhibitor studies

Row | Compound | tumour outcome (control, treated, inhibition, significance) (Carcinogen: 7,12-DIMETHYLBENZ[A]ANTHRACENE (DMBA) (57-97-6), Dose [Inhibitor]: 50 MG/KG/D FOR 37 WK (STUDY DURATION: 37 WK), Route [Inhibitor]: ORAL GAVAGE, Species: MOUSE, Strain/Sex: SENCAR/FEMALE, Target Tissue: Type of Lesion: MAMMARY: CARCINOMA, Dose [Carcinogen]: 20 UG/D FOR 6 WKS (STUDY DURATION: 37 WKS), Promoter: MEDROXYPROGESTERONE ACETATE (71-58-9)) | tumour outcome (control, treated, inhibition, significance) (Carcinogen: 7,12-DIMETHYLBENZ[A]ANTHRACENE (DMBA) [57-97-6], Dose [Inhibitor]: 50 MG/KG/D FOR 52 WK (STUDY DURATION: 52 WK), Route [Inhibitor]: ORAL GAVAGE, Species: MOUSE, Strain/Sex: SENCAR/FEMALE, Target Tissue: Type of Lesion: MAMMARY: CARCINOMA, Dose [Carcinogen]: 20 UG/D FOR 6 WKS, Promoter: MEDROXYPROGESTERONE ACETATE (71-58-9)) | tumour outcome (control, treated, inhibition, significance) (Carcinogen: AZOXYMETHANE, 25843-45-2, Dose [Inhibitor]: 0, 20 PPM IN DIET FOR 32 WK BEGINNING 1 WK POST CARCINOGEN TREATMENT (STUDY DURATION: 36 WK), Route [Inhibitor]: ORAL, Species: RAT, Strain/Sex: (30,30)/(30,24), Target Tissue: Type of Lesion: SMALL INTESTINE: ADENOMA OR ADENOCARCINOMA, Dose [Carcinogen]: 15 MG/KG BW 1/WK FOR 3 WK, Promoter: NONE USED) | tumour outcome (control, treated, inhibition, significance) (Carcinogen: AZOXYMETHANE, 25843-45-2, Dose [Inhibitor]: 0, 20 PPM IN DIET FOR 32 WK BEGINNING 1 WK POST CARCINOGEN TREATMENT (STUDY DURATION: 36 WK), Route [Inhibitor]: ORAL, Species: RAT, Strain/Sex: F344/MALE, Target Tissue: Type of Lesion: LARGE INTESTINE: ADENOMA OR ADENOCARCINOMA, Dose [Carcinogen]: 15 MG/KG BW 1/WK FOR 3 WK, Promoter: NONE USED) | tumour outcome (control, treated, inhibition, significance) (Carcinogen: AZOXYMETHANE, 25843-45-2, Dose [Inhibitor]: 0, 100 PPM IN DIET FOR 32 WK BEGINNING 1 WK POST CARCINOGEN TREATMENT (STUDY DURATION: 36 WK), Route [Inhibitor]: ORAL, Species: RAT, Strain/Sex: F344/MALE, Target Tissue: Type of Lesion: LARGE INTESTINE: ADENOMA OR ADENOCARCINOMA, Dose [Carcinogen]: 15 MG/KG BW 1/WK FOR 3 WK, Promoter: NONE USED) | tumour outcome (control, treated, inhibition, significance) (Carcinogen: AZOXYMETHANE, 25843-45-2, Dose [Inhibitor]: 0, 100 PPM IN DIET FOR 32 WK BEGINNING 1 WK POST CARCINOGEN TREATMENT (STUDY DURATION: 36 WK), Route [Inhibitor]: ORAL, Species: RAT, Strain/Sex: F344/MALE, Target Tissue: Type of Lesion: SMALL INTESTINE: ADENOMA OR ADENOCARCINOMA, Dose [Carcinogen]: 15 MG/KG BW 1/WK FOR 3 WK, Promoter: NONE USED) | tumour outcome (control, treated, inhibition, significance) (Carcinogen: DIETHYLNITROSAMINE, 55-18-5, Dose [Inhibitor]: 0, 100 PPM IN DIET FOR 4 WK BEGINNING 1 WK PRIOR TO CARCINOGEN TREATMENT (STUDY DURATION: 24 WK), Route [Inhibitor]: ORAL, Species: RAT, Strain/Sex: F344/MALE, Target Tissue: Type of Lesion: LIVER: HEPATOCELLULAR ADENOMA, Dose [Carcinogen]: 100 MG/KG BW 1/WK FOR 3 WK, Promoter: PHENOBARBITAL, 50-06-6) | tumour outcome (control, treated, inhibition, significance) (Carcinogen: DIETHYLNITROSAMINE, 55-18-5, Dose [Inhibitor]: 0, 100 PPM IN DIET FOR 4 WK BEGINNING 1 WK PRIOR TO CARCINOGEN TREATMENT (STUDY DURATION: 24 WK), Route [Inhibitor]: ORAL, Species: RAT, Strain/Sex: F344/MALE, Target Tissue: Type of Lesion: LIVER: HEPATOCELLULAR CARCINOMA, Dose [Carcinogen]: 100 MG/KG BW 1/WK FOR 3 WK, Promoter: PHENOBARBITAL, 50-06-6) | tumour outcome (control, treated, inhibition, significance) (Carcinogen: DIETHYLNITROSAMINE, 55-18-5, Dose [Inhibitor]: 0, 100 PPM IN DIET FOR 20 WK BEGINNING 1 WK POST CARCINOGEN TREATMENT (STUDY DURATION: 24 WK), Route [Inhibitor]: ORAL, Species: RAT, Strain/Sex: F344/MALE, Target Tissue: Type of Lesion: LIVER: HEPATOCELLULAR ADENOMA, Dose [Carcinogen]: 100 MG/KG BW 1/WK FOR 3 WK, Promoter: PHENOBARBITAL, 50-06-6) | tumour outcome (control, treated, inhibition, significance) (Carcinogen: DIETHYLNITROSAMINE, 55-18-5, Dose [Inhibitor]: 0, 100 PPM IN DIET FOR 20 WK BEGINNING 1 WK POST CARCINOGEN TREATMENT (STUDY DURATION: 24 WK), Route [Inhibitor]: ORAL, Species: RAT, Strain/Sex: F344/MALE, Target Tissue: Type of Lesion: LIVER: HEPATOCELLULAR CARCINOMA, Dose [Carcinogen]: 100 MG/KG BW 1/WK FOR 3 WK, Promoter: PHENOBARBITAL, 50-06-6)
1 | OCCOc1ccc(/C(=C(/CCCl)c2ccccc2)c2ccccc2)cc1 | 10/21 (48%); 1/18 (6%), 88%, p=0.003 | 13/23 (57%); 1/20 (5%), 91%, p=0.0003 | – | – | – | – | – | – | – | –
2 | CSS(C)(=O)=O | – | – | 4/30 (13%), 1/24 (4%), 69%, not significant | 17/30 (57%), 9/24 (38%), 33%, not significant | 17/30 (57%), 2/28 (7%), 88%, p<0.0001 | 4/30 (13%), 4/28 (14%), -7%, not significant | 95%, 89%, 6%, not significant | 70%, 89%, -27%, not significant | 95%, 55%, 42%, p<0.005 | 70%, 81%, -16%, not significant
